Experimental data reported in patent publication US10030016B2 (Sunesis Pharmaceuticals, Inc., priority 2009, dated 2018).
Structures can show the parent of a compound that is named as a salt. Where two headings read alike, the source gives them in different places.

Columns and labels:
PDK1 = PDK1 (Homo sapiens (Human), UniProt O15530); experiment: PDK1 kinase assay (coupled PDK1/AKT/FAM-crosstide assay, IMAP fluorescence polarization); format: biochemical
Summary of the method: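 Coupled cascade: 0.75 nM PDK1 (51-359) → 10 nM AKT2 (140-467-PIFtide) → 100 nM FAM-crosstide. ATP 40 μM, 25° C, 30 min. IMAP FP (ex 485/em 530), 2 h binding. ΔmP vs conc, 4-param fit.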

[1] = tested on: phospho-akt (Thr308) in PC-3 cells; experiment: Inhibition of phospho-akt (Thr308) in PC-3 cells, MSD phospho-akt 308 ELISA kit; format: cell-based; conditions: 2 hours, no serum, read-out: EC50
Summary of the method: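 PC-3 cells were seeded overnight in growth medium with 10% FBS, then exposed to compound serially diluted threefold in serum-free medium for 2 hours. Lysates were captured overnight at 4 degrees on MSD plates and phospho-Akt Thr308 was detected electrochemiluminescently, against DMSO high and 5 μM wortmannin low controls.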

[2] = inhibition of phospo-PDK1 in vitro
[3] = Homo sapiens, inhibition of P308 Akt in PC-3 cells, MSD
[4] = Homo sapiens, inhibition of P308 Akt in PC-3 cells using MSD

Chain of PDK1 (O15530 51-359): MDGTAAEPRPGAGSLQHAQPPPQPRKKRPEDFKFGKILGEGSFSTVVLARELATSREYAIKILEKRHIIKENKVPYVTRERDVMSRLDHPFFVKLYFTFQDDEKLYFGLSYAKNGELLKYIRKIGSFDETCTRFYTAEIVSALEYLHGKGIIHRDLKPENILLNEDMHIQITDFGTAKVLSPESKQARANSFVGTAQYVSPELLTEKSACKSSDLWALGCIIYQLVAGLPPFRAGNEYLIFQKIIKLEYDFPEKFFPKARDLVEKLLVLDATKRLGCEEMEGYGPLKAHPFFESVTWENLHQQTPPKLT

IC50 (PDK1; [2]) [µM] | EC50 [1, 3] [µM] | IC50 (PDK1; inhibition of PDK1 in vitro) [µM] | EC50 [1, 4] [µM] | SMILES | also measured
 |  | < 0.1 |  | C[C@H](NC(=O)c1cc(C#N)cnc1NCc1ccc(-c2c[nH]c3ncnc(N)c23)cc1F)c1ccc(F)cc1 [Example 99, (S)-2-(4-(4-amino-7H-pyrrolo[2,3-d]pyrimidin-5-yl)-2-fluorobenzylamino)-5-cyano-N-(1-(4-fluorophenyl)ethyl) nicotinamide] | EC50 ([1]; inhibition of P308 Akt in PC-3 cells using MSD): < 1 µM
 |  | > 5 | > 10 | C[C@H](NC(=O)c1cc(C#N)cnc1NCC#Cc1cnc2[nH]ncc2c1)c1ccc(F)cc1 [Example 249, (S)-2-(3-(1H-pyrazolo[3,4-b]pyridin-5-yl)prop-2-ynylamino)-5-cyano-N-(1-(4-fluorophenyl)ethyl)nicotinamide] | 
 |  | < 0.1 | 1 to 10 | C[C@H](NC(=O)c1cc(C#N)cnc1NCc1cnc(-c2cnc3[nH]ncc3c2)s1)c1ccc(F)cc1 [Example 67, 5-Cyano-N-[(S)-1-(4-fluoro-phenyl)-ethyl]-2-{[2-(1H-pyrazolo[3,4-b]pyridin-5-yl)-thiazol-5-ylmethyl]-amino}-nicotinamide] | 
 |  | > 5 | > 10 | CNc1ncc(-c2ccc(CNc3ncc(C#N)cc3C(=O)N[C@@H](C)c3ccc(F)cc3)cc2)cc1F [Example 109] | 
0.1 to 1 | < 1 |  |  | C[C@H](NC(=O)c1cccnc1NCc1ccc(-c2c[nH]c3ncnc(N)c23)s1)c1ccc(F)cc1 [Example 2.20, (S)-2-(((5-(4-amino-7H-pyrrolo[2,3-d]pyrimidin-5-yl)thiophen-2-yl)methyl)amino)-N-(1-(4-fluorophenyl)ethyl)nicotinamide] | 
 |  | < 0.1 | < 1 | C[C@H](NC(=O)c1cc(C2=CCOC2)cnc1NCc1ccc(-c2cn(C)c3ncnc(N)c23)cc1)c1ccc(F)cc1 [Example 248, (S)-2-(4-(4-amino-7-methyl-7H-pyrrolo[2,3-d]pyrimidin-5-yl)benzylamino)-5-(2,5-dihydrofuran-3-yl)-N-(1-(4-fluorophenyl)ethyl) nicotinamide] | 
 |  | < 0.1 | > 10 | C[C@H](NC(=O)c1cc(C#N)cnc1NCc1ccc(-c2cnc3[nH]nc(CN(C)C)c3c2)cc1)c1ccc(F)cc1 [Example 151, (S)-5-cyano-2-(4-(3-((dimethylamino)methyl)-1H-pyrazolo[3,4-b]pyridin-5-yl)benzyl-amino)-N-(1-(4-fluorophenyl)ethyl) nicotinamide] | 
 |  | < 0.1 | 1 to 10 | COCCCc1nc(-c2ccc(CNc3ncc(C#N)cc3C(=O)N[C@@H](C)c3ccc(F)cc3)cc2)cnc1N [Example 92, 2-{4-[5-Amino-6-(3-methoxy-propyl)-pyrazin-2-yl]-benzyl-amino}-5-cyano-N-[(S)-1-(4-fluoro-phenyl)-ethyl]-nicotinamide] | 

Continued, compound first:

SMILES | IC50 (PDK1; [2]) [µM] | EC50 [1, 3] [µM] | IC50 (PDK1; inhibition of PDK1 in vitro) [µM] | EC50 [1, 4] [µM] | also measured
Nc1ncnc2ccc(-c3ccc(CNc4ncccc4C(=O)NCCN4CCCC4)s3)cc12 [Example 3.36, 2-({[5-(4-aminoquinazolin-6-yl)thiophen-2-yl]methyl}amino)-N-[2-(pyrrolidin-1-yl)ethyl] pyridine-3-carboxamide (TFA salt)] | > 5 | 1 to 10 |  |  | 
C[C@H](NC(=O)c1nccnc1NCc1ccc(-c2ccc3ncnc(N)c3c2)s1)c1cccc(F)c1 [Example 3.69, 3-({[5-(4-aminoquinazolin-6-yl)thiophen-2-yl]methyl}amino)-N-[(1S)-1-(3-fluorophenyl)ethyl] pyrazine-2-carboxamide (TFA salt)] | < 0.1 | 1 to 10 |  |  | 
COCCCn1cc(-c2ccc(CNc3ncc(C#N)nc3C(=O)N[C@@H](C)c3ccc(F)c(F)c3)cc2)c2c(N)ncnc21 [Example 317, (S)-3-(4-(4-amino-7-(3-methoxypropyl)-7H-pyrrolo[2,3-d]pyrimidin-5-yl)benzylamino)-6-cyano-N-(1-(3,4-difluoro-phenyl)ethyl)pyrazine-2-carboxamide] |  |  | < 0.1 | < 1 | 
N#Cc1cnc(NCc2ccc(-c3cnc4[nH]nc(N)c4c3)cc2)c(C(=O)Nc2ccc(F)cc2)n1 [Example 29, 3-(4-(3-amino-1H-pyrazolo[3,4-b]pyridin-5-yl)benzylamino)-6-cyano-N-(4-fluorophenyl) pyrazine-2-carboxamide] | < 0.1 | < 1 |  |  | 
C[C@H](NC(=O)c1nc(C#N)cnc1NCc1ccc(-c2cn(CCN(C)C)c3ncnc(N)c23)cc1)c1ccc(F)c(F)c1 [Example 398, (S)-3-(4-(4-amino-7-(2-(dimethylamino)ethyl)-7H-pyrrolo[2,3-d]pyrimidin-5-yl)benzylamino)-6-cyano-N-(1-(3,4-difluorophenyl)ethyl)pyrazine-2-carboxamide] |  |  | < 0.1 | 1 to 10 | 
Nc1ncnc2ccc(-c3ccc(CNc4ncc(NC(=O)C(F)(F)F)cc4C(=O)NCc4ccc(F)c(F)c4)s3)cc12 [Example 8.5.6, 2-({[5-(4-aminoquinazolin-6-yl)thiophen-2-yl]methyl}amino)-N-(3,4-difluorobenzyl)-5-[(trifluoroacetyl)amino] pyridine-3-carboxamide] | 0.1 to 1 | 1 to 10 |  |  | 
Nc1ncnc2ccc(-c3ccc(CNc4ncccc4C(=O)NCc4cc(F)cc(F)c4)s3)cc12 [Example 3.39, 2-({[5-(4-aminoquinazolin-6-yl)thiophen-2-yl]methyl}amino)-N-(3,5-difluorobenzyl) pyridine-3-carboxamide (TFA salt)] | < 0.1 | < 1 |  |  | 
Nc1n[nH]c2ncc(-c3ccc(CNc4ncc(C(F)(F)F)cc4C(=O)Nc4cncc(F)c4)cc3)cc12 [Example 306, 2-(4-(3-amino-1H-pyrazolo [3,4-b]pyridin-5-yl)benzylamino)-N-(5-fluoropyridin-3-yl)-5-(trifluoromethyl)nicotinamide] |  |  | < 0.1 | < 1 | 
C[C@H](NC(=O)c1nc(C#N)cnc1NCc1ccc(-c2cnc(N)c(O[C@@H]3CCC[C@H]3N)n2)cc1)c1ccc(F)c(F)c1 [Example 172, 3-{4-[5-Amino-6-((1R,2R)-2-amino-cyclopentyloxy)-pyrazin-2-yl]-benzylamino}-6-cyano-pyrazine-2-carboxylic acid [(S)-1-(3,4-difluoro-phenyl)-ethyl]-amide] |  |  | < 0.1 | 1 to 10 | 
CC(C)NS(=O)(=O)c1cnc(NCc2ccc(-c3ccc4ncnc(N)c4c3)s2)c(C(=O)NCc2ccc(F)c(F)c2)c1 [Example 8.7.9, 2-({[5-(4-aminoquinazolin-6-yl)thiophen-2-yl]methyl}amino)-N-(3,4-difluorobenzyl)-5-(propan-2-ylsulfamoyl) pyridine-3-carboxamide] | 0.1 to 1 |  |  |  | EC50 ([1]; Homo sapiens, PC-3, 2 h, inhibition of P308 Akt in PC-3 cells, MSD): 1 to 10 µM
CCNS(=O)(=O)c1cnc(NCc2ccc(-c3ccc4ncnc(N)c4c3)s2)c(C(=O)NC)c1 [Example 8.6.16, 2-(((5-(4-aminoquinazolin-6-yl)thiophen-2-yl)methyl)amino)-5-(N-ethylsulfamoyl)-N-methylnicotinamide] | > 5 | > 10 |  |  | 
Cn1c(-c2ccc(CNc3ncc(C(F)(F)F)cc3C(=O)Nc3ccc(F)cc3)cc2)cc2c(N)ncnc21 [Example 337, 2-(4-(4-amino-7-methyl-7H-pyrrolo[2,3-d]pyrimidin-6-yl)-benzylamino)-N-(4-fluorophenyl)-5-(trifluoromethyl)nicotinamide] |  |  | < 0.1 | 1 to 10 | 
COc1ccnc(NCc2ccc(-c3ccc4ncnc(N)c4c3)s2)c1C(=O)NCc1ccc(F)c(F)c1 [Ex. 7.4, 2-({[5-(4-aminoquinazolin-6-yl)thiophen-2-yl]methyl}amino)-N-(3,4-difluorobenzyl)-4-methoxypyridine-3-carboxamide] | 0.1 to 1 | > 10 |  |  | 
C[C@H](NC(=O)c1cccnc1NCc1ccc(-c2ccc3ncnc(N4CC(C)(O)C4)c3c2)s1)c1ccc(F)c(F)c1 [Example 4.37] | 0.1 to 1 | 1 to 10 |  |  | 
C[C@H](NC(=O)c1nc(C#N)cnc1N[C@H](C)c1ccc(-c2cn(C)c3ncnc(N)c23)cc1)c1ccc(F)c(F)c1 [Example 399, 3-((R)-1-(4-(4-amino-7-methyl-7H-pyrrolo[2,3-d]pyrimidin-5-yl)phenyl)ethylamino)-6-cyano-N-((S)-1-(3,4-difluorophenyl)ethyl)pyrazine-2-carboxamide] |  |  | < 0.1 | < 1 | 
O=C(NCc1ccc(F)c(F)c1)c1cccnc1NCc1ccc(-c2ccc3ncnc(NCC(F)(F)F)c3c2)s1 [Example 4.22, N-(3,4-difluorobenzyl)-2-(((5-(4-(2,2,2-trifluoroethylamino)quinazolin-6-yl)thiophen-2-yl)methyl)amino)nicotinamide] | 0.1 to 1 | 1 to 10 |  |  | 
C[C@H](NC(=O)c1nc(C#N)cnc1NCc1ccc(-c2cn(CCN)c3ncnc(N)c23)cc1)c1ccc(F)c(F)c1 [Example 319, (S)-3-(4-(4-amino-7-(2-aminoethyl)-7H-pyrrolo[2,3-d]pyrimidin-5-yl)benzylamino)-6-cyano-N-(1-(3,4-difluoro-phenyl)ethyl)pyrazine-2-carboxamide] |  |  | < 0.1 | < 1 | 
Cc1cc(-c2ccc(CNc3ncc(C(F)(F)F)cc3C(=O)NCc3ccc(F)c(F)c3)cc2)cnc1N [Example 355, 2-(4-(6-amino-5-methylpyridin-3-yl)benzylamino)-N-(3,4-difluorobenzyl)-5-(trifluoromethyl)nicotinamide] |  |  | < 0.1 | 1 to 10 | 
